For two molecules, inhibition results are on record in patent US4894374A, “Substituted 1,2-dihydro-4h-3,1-benzoxazin-4-one derivatives inhibitors of interleukin 1” (American Home Products Corporation, priority 1988, dated 1990).

The test concerns IL 1-induced release of neutral protease from rabbit articular chondrocytes. Kind of test: inhibition of IL 1-induced release of neutral protease from rabbit articular chondrocytes. Particulars: Oryctolagus cuniculus, Chondrocyte, human IL 1 stimulation, 24 h, compound added 10 min before IL 1, ± S.D., read-out: % Inhibition (of protease secretion). It counts as cell-based, rabbit (New Zealand White). As to the method: The ability of the compounds of the inventions to inhibit interleukin 1 is measured by the ability of the test compounds to inhibit the IL 1-induced release of neutral protease from rabbit articular chondrocytes.
Male New Zealand White rabbits are anesthetized with 50 mg/kg of ketamine (i.m.) and killed by an intracardiac injection of 3 mls. of Nembutal. The knee joints of both legs are resected and the articular surfaces are exposed. Cartilage slices are obtained using a scalpel and are placed in a tissue culture dish (100 mm diameter) containing 10 mls of Hank's balanced salt solution (HBSS). The chondrocytes within the cartilage slices are then liberated by a series of enzyme digestions. The slices are incubated for 10 min. at 37° C. in 0.05% hyaluronidase (Sigma H-3884), rinsed with HBSS and incubated with 0.2% trypsin (Sigma T-2395) for 10 min. at 37° C. The slices are rinsed again and incubated for 10 mins. at 37° C. with 1.2% collagenase (Sigma C-5138). The slices are then rinsed again with HBSS and resuspended in 10 ml of Ham's F-12 medium containing 10% fetal bovine calf serum (FCS) and 0.2 % collagenase and incubated overnight at 37° C. in a 5% CO2 incubator. The next day, the medium containing the digested cartilage fragments and liberated chondrocytes is transferred to a 15 ml centrifuge tube and the cells are collected by centrifugation and washed twice and resuspended in Ham's F-12 medium. The cells are then plated into 24-well tissue culture plates (2×10^5 cells/well) and incubated at 37° C. until confluent (usually 4-6 days).
The confluent chondrocytes are rinsed twice with serum-free Ham's F-12 medium and 1 ml is added to each well. Fifty μl of purified human IL 1 (100 Units/ml; Genzyme Corporation, Boston, MA) is then added to stimulate these cells to secrete neutral protease. To measure drug effects, the cells are treated with test compound 10 min. prior to addition of IL 1. The standard screening dose is 10 μM. Twenty-four hours after IL 1 stimulation, supernatant fluids are collected and assayed for neutral protease activity.
The neutral protease activity of chondrocyte supernatant fluids is determined by their ability to degrade an insoluble protease substrate, azocoll (Sigma). Supernatants are treated for 10 min. at room temperature with 350 μM p-aminophenylmercuric acetate to activate the latent enzyme. Three hundred μl of supernatant is then mixed with 500 μl of a 20 mg/ml suspension of azocoll and incubated at 37° C. for 18-24 hrs. with gentle rocking. The mixtures are centrifuged and the amount of substrate hydrolyzed is determined by measuring the absorbance of the supernatant at 520 nm.
Drug effects are calculated as the % change in enzyme activity (absorbance)by supernatants from drug-treated chondrocytes relative to enzyme activity of supernatants from vehicle-treated chondrocytes as follows: % Inhibition of Protease Secretion= [formula]

`N#Cc1ccc(N2CCC3(CC2)Nc2cc(Cl)ccc2C(=O)O3)cc1` [Example 1, 4-[7-Chloro-1,3-dihydro-4-oxospiro[2H-3,1-benzoxazine-2,4'-piperidin]-1-yl]benzonitrile]: the inhibition (usually how much of the control response was suppressed) at 1 µM was determined as 56 ± 22%, the inhibition at 5 µM is 55 ± 19% and the inhibition at 10 µM was 47 ± 34%.

For `CS(=O)(=O)c1ccc(N2CCC3(CC2)Nc2cc(Cl)ccc2C(=O)O3)cc1` [Example 2, 7-Chloro-1'-[4-(methylsulfonyl)phenyl]spiro[2H-3,1-benzoxazine-2,4'-piperidin]-4(1H)-one], the inhibition at 1 µM amounted to 30 ± 31%, the inhibition at 5 µM was determined as 48 ± 7% and the inhibition at 10 µM came to 51 ± 32%.
